Results from ChEMBL document CHEMBL3885861, “Open TG-GATES”.

Species: Rattus norvegicus
Experiment: Open TG-GATES - Regimen: Single
Assay type: toxicity, organism-based, Sprague-Dawley
Parameters: regimen Single, gender Male, age 6 weeks
Conditions: in vivo, po, 100 mg/kg, route gavage, dose level High; for APTT / Bas / Eos / Fbg / Hb / Ht / Lym / MCH / MCHC / MCV / Mono / Neu / PT / Plat / RBC / Ret / WBC: tissue Blood; for KIDNEY_L / KIDNEY_R / KIDNEY_TOTAL: tissue Kidney; for LIVER: tissue Liver; for A/G / ALP / ALT / AST / BUN / CRE / Ca / Cl / DBIL / GLC / IP / K / LDH / Na / PL / RALB / TBIL / TC / TG / TP / gamma-GTP: tissue Plasma

Work on `CC1=C(/C=C/C(C)=C/C=C/C(C)=C/CO)C(C)(C)CCC1` [RETINOL] yielded a TERMINAL_BW (3 h) of 201.1 g, an APTT (3 h) of 21.6 s and a Bas (3 h) of 0%. It also gave an Eos (3 h) of 1%, a Fbg (3 h) of 312.4 mg/dL and a Hb (3 h) of 13.3 g/dL. For the same molecule, the Ht (3 h) was 38.7%, the Lym (3 h) was 77.2% and the MCH (3 h) was 21.4 pg. For the same molecule, the MCHC (3 h) was 34.5%, the MCV (3 h) was 62 fL and the Mono (3 h) was 2.6%. The Neu (3 h) was 19%, the PT (3 h) was 15.7 s and the Plat (3 h) was 117.7 x10_4/uL. For the same molecule, the RBC (3 h) was 625.8 x10_4/ul, the Ret (3 h) was 8% and the WBC (3 h) was 79.7 x10_2/uL. The KIDNEY_L (3 h) was 0.9 g, the KIDNEY_R (3 h) was 0.9 g and the KIDNEY_TOTAL (3 h) was 1.8 g. The LIVER (3 h) was 9.1 g, the A/G (3 h) was 1.4 and the ALP (3 h) was 1910.2 IU/L. For the same molecule, the ALT (3 h) was 46 IU/L, the AST (3 h) was 77 IU/L and the BUN (3 h) was 13.6 mg/dL. It also gave a CRE (3 h) of 0.2 mg/dL, a Ca (3 h) of 11 mg/dL and a Cl (3 h) of 106.2 meq/L. The DBIL (3 h) was 0 mg/dL, the GLC (3 h) was 182 mg/dL and the IP (3 h) was 9.4 mg/dL. For the same molecule, the K (3 h) was 4 meq/L, the LDH (3 h) was 219.2 IU/L and the Na (3 h) was 141.2 meq/L. For the same molecule, the PL (3 h) was 157.4 mg/dL, the RALB (3 h) was 3.2 g/dL and the TBIL (3 h) was 0.006 mg/dL. For the same molecule, the TC (3 h) was 77 mg/dL, the TG (3 h) was 153 mg/dL and the TP (3 h) was 5.6 g/dL. It also gave a gamma-GTP (3 h) of 1.6 IU/L, a TERMINAL_BW (6 h) of 205.2 g and an APTT (6 h) of 20.3 s. The Bas (6 h) was 0%, the Eos (6 h) was 1% and the Fbg (6 h) was 292.8 mg/dL. For the same molecule, the Hb (6 h) was 13.2 g/dL, the Ht (6 h) was 38.6% and the Lym (6 h) was 73.8%. It also gave an MCH (6 h) of 21.1 pg, an MCHC (6 h) of 34.2% and an MCV (6 h) of 61.8 fL. For the same molecule, the Mono (6 h) was 4.8%, the Neu (6 h) was 19.8% and the PT (6 h) was 15 s. The Plat (6 h) was 120.3 x10_4/uL, the RBC (6 h) was 625.6 x10_4/ul and the Ret (6 h) was 7.8%. It also gave a WBC (6 h) of 110 x10_2/uL, a KIDNEY_L (6 h) of 0.9 g and a KIDNEY_R (6 h) of 0.9 g. It also gave a KIDNEY_TOTAL (6 h) of 1.8 g, an LIVER (6 h) of 9 g and an A/G (6 h) of 1.3. For the same molecule, the ALP (6 h) was 1660.6 IU/L, the ALT (6 h) was 37.6 IU/L and the AST (6 h) was 74 IU/L. It also gave a BUN (6 h) of 10.6 mg/dL, a CRE (6 h) of 0.1 mg/dL and a Ca (6 h) of 11.3 mg/dL. It also gave a Cl (6 h) of 105.8 meq/L, a DBIL (6 h) of 0.006 mg/dL and a GLC (6 h) of 190.4 mg/dL. The IP (6 h) was 10.6 mg/dL, the K (6 h) was 4.3 meq/L and the LDH (6 h) was 212.4 IU/L. For the same molecule, the Na (6 h) was 141.8 meq/L, the PL (6 h) was 147.8 mg/dL and the RALB (6 h) was 3.1 g/dL. It also gave a TBIL (6 h) of 0.016 mg/dL, a TC (6 h) of 71.8 mg/dL and a TG (6 h) of 118 mg/dL. For the same molecule, the TP (6 h) was 5.4 g/dL, the gamma-GTP (6 h) was 1 IU/L and the TERMINAL_BW (9 h) was 198.4 g. It also gave an APTT (9 h) of 21.5 s, a Bas (9 h) of 0% and an Eos (9 h) of 0.8%. For the same molecule, the Fbg (9 h) was 288.4 mg/dL, the Hb (9 h) was 12.8 g/dL and the Ht (9 h) was 36.9%. The Lym (9 h) was 72.4%, the MCH (9 h) was 21.3 pg and the MCHC (9 h) was 34.7%. For the same molecule, the MCV (9 h) was 61.4 fL, the Mono (9 h) was 3.2% and the Neu (9 h) was 22.6%. For the same molecule, the PT (9 h) was 15.5 s, the Plat (9 h) was 124.3 x10_4/uL and the RBC (9 h) was 601 x10_4/ul. It also gave a Ret (9 h) of 7.6%, a WBC (9 h) of 96.3 x10_2/uL and a KIDNEY_L (9 h) of 0.9 g. The KIDNEY_R (9 h) was 0.9 g, the KIDNEY_TOTAL (9 h) was 1.9 g and the LIVER (9 h) was 8.8 g. For the same molecule, the A/G (9 h) was 1.4, the ALP (9 h) was 1745.2 IU/L and the ALT (9 h) was 35.2 IU/L. For the same molecule, the AST (9 h) was 69.2 IU/L, the BUN (9 h) was 9.6 mg/dL and the CRE (9 h) was 0.1 mg/dL. For the same molecule, the Ca (9 h) was 11 mg/dL, the Cl (9 h) was 106.4 meq/L and the DBIL (9 h) was 0.014 mg/dL. The GLC (9 h) was 179.6 mg/dL, the IP (9 h) was 10.7 mg/dL and the K (9 h) was 4.3 meq/L. The LDH (9 h) was 219.6 IU/L, the Na (9 h) was 141.2 meq/L and the PL (9 h) was 129.2 mg/dL. For the same molecule, the RALB (9 h) was 3.1 g/dL, the TBIL (9 h) was 0.016 mg/dL and the TC (9 h) was 65.6 mg/dL. For the same molecule, the TG (9 h) was 91.2 mg/dL, the TP (9 h) was 5.3 g/dL and the gamma-GTP (9 h) was 1 IU/L. The TERMINAL_BW (24 h) was 207.3 g, the APTT (24 h) was 23.2 s and the Bas (24 h) was 0%. It also gave an Eos (24 h) of 0.8%, a Fbg (24 h) of 303.6 mg/dL and a Hb (24 h) of 13.3 g/dL. It also gave a Ht (24 h) of 38.7%, a Lym (24 h) of 79.2% and an MCH (24 h) of 21.2 pg. The MCHC (24 h) was 34.3%, the MCV (24 h) was 61.9 fL and the Mono (24 h) was 2.2%. The Neu (24 h) was 16.8%, the PT (24 h) was 16 s and the Plat (24 h) was 117.6 x10_4/uL. The RBC (24 h) was 627 x10_4/ul, the Ret (24 h) was 7.3% and the WBC (24 h) was 93.1 x10_2/uL. It also gave a KIDNEY_L (24 h) of 0.9 g, a KIDNEY_R (24 h) of 0.9 g and a KIDNEY_TOTAL (24 h) of 1.8 g. For the same molecule, the LIVER (24 h) was 9.6 g, the A/G (24 h) was 1.2 and the ALP (24 h) was 1815.8 IU/L. For the same molecule, the ALT (24 h) was 47.2 IU/L, the AST (24 h) was 79 IU/L and the BUN (24 h) was 14.2 mg/dL. The CRE (24 h) was 0.2 mg/dL, the Ca (24 h) was 10.8 mg/dL and the Cl (24 h) was 106.2 meq/L. The DBIL (24 h) was 0.004 mg/dL, the GLC (24 h) was 193.4 mg/dL and the IP (24 h) was 7.4 mg/dL. For the same molecule, the K (24 h) was 4 meq/L, the LDH (24 h) was 242.4 IU/L and the Na (24 h) was 140.2 meq/L. The PL (24 h) was 144 mg/dL, the RALB (24 h) was 3 g/dL and the TBIL (24 h) was 0.006 mg/dL. For the same molecule, the TC (24 h) was 68.8 mg/dL, the TG (24 h) was 155.2 mg/dL and the TP (24 h) was 5.5 g/dL. It also gave a gamma-GTP (24 h) of 1.8 IU/L.
